Experiment [1] concerns Candida parapsilosis. The conditions noted are these: ATCC 22019, Example 4 table, cited from earlier work.
The subject of experiment [2] is Aspergillus fumigatus. The conditions noted are these: ATCC MYA-3626; 48 hr; Example 1 table; cited from earlier work.
For experiment [3], the system named is Candida parapsilosis. In words: Broth microdilution MIC, yeast and fungi (Example 1). The format is cell-based. The conditions noted are these: Example 1, isolate MMX 2323 (ATCC 22019).
Experiment [4] deals with Aspergillus fumigatus. In words: Broth microdilution MIC, fungi (Example 4). Format: cell-based. The conditions noted are these: Example 4, isolate MMX 5280 (MYA-3626). (Broth dilution looks for growth in wells or tubes with falling amounts of substance.)
Experiment [5] relates to Candida parapsilosis. In words: Broth microdilution MIC, fungi (Example 4). Format: cell-based. The conditions noted are these: Example 4, isolate MMX 2323 (ATCC 22019).
For experiment [6], the system named is Aspergillus fumigatus. The conditions noted are these: MYA-3626; 48 hr; Example 4 table; cited from earlier work.
Experiment [7] relates to Aspergillus fumigatus. In words: Broth microdilution MIC, yeast and fungi (Example 1). The format is cell-based. The conditions noted are these: isolate MMX 5280 (ATCC MYA-3626).
The subject of experiment [8] is Candida parapsilosis. The conditions noted are these: ATCC 22019, Example 1 table, cited from earlier work.

The text below walks through data of patent publication US11207291B2, “Antimicrobial compositions comprising cannabinoids and methods of using the same” (Graphium Biosciences, Inc., priority 2017, dated 2021).

Values after ≈ are worked out from the molar mass of the structure shown. Read-outs that look alike come from different tables or passages of the source.

In general, MIC refers to the smallest concentration in the dilution series that meets the test's criterion for growth inhibition.

With `C[C@@H]1[C@H](O)[C@@H](C)/C=C/C=C/C=C/C=C/C=C/C=C/C=C/[C@H](O[C@@H]2O[C@H](C)[C@@H](O)[C@H](N)[C@@H]2O)C[C@@H]2O[C@](O)(C[C@@H](O)C[C@@H](O)[C@H](O)CC[C@@H](O)C[C@@H](O)CC(=O)O[C@H]1C)C[C@H](O)[C@H]2C(=O)O` [Amphotericin B], the “CLSI QC range (MIC)” value with Candida parapsilosis [1] (24 hr) is “(0.5-2)^3, μg/mL”; in the experiment on Candida parapsilosis [1] (48 hr) it was “(0.25-4)^3 μg/mL”; in the experiment on Aspergillus fumigatus [2] it was 0.5 to 4 µg/mL; with Aspergillus fumigatus [6], “(0.5-4)^3 μg/mL”; in the experiment with Candida parapsilosis [8] (24 hr), 0.5 to 2 µg/mL; in the experiment with Candida parapsilosis [8] (48 hr), 0.25 to 4 µg/mL. For the same molecule, the minimum inhibitory concentration (MIC) at 24 hr with Candida parapsilosis [3] (24 hr) was 0.5 µg/mL (≈ 0.541 µM); in the experiment on Aspergillus fumigatus [4] (24 hr), 0.25 µg/mL (≈ 0.271 µM); in the experiment on Candida parapsilosis [5] (24 hr), 0.12 µg/mL (≈ 0.13 µM); against Aspergillus fumigatus [7] (24 hr), 0.5, μg/mL. Moreover, the minimum inhibitory concentration (MIC) at 48 hr turned out to be 1 µg/mL (≈ 1.08 µM) in the experiment on Candida parapsilosis [3] (48 hr), 1 µg/mL (≈ 1.08 µM) in the experiment with Aspergillus fumigatus [4] (48 hr), 0.5 µg/mL (≈ 0.541 µM) against Candida parapsilosis [5] (48 hr) and 2 µg/mL (≈ 2.16 µM) with Aspergillus fumigatus [7] (48 hr).
